Measured values from patent US4647572A, “Iodoallyl and iodopropargyl substituted tetrazoles and anti-microbial compositions thereof” (Meiji Seika Kaisha, Ltd., priority 1982, dated 1987).
In brackets after ≈: the same amount, converted by molar mass. Like-named read-outs stand apart in the source and are kept apart here.

How the values were obtained:
Type in all cases: cell-based
[1] = system: Trichophyton metagrophytes 530324; assay: Antifungal Activity MIC (in medicinal field); settings: read-out: Minimal Inhibitory Concentration (MIC)
[2] = system: Cryptococcus neoformans Cr-1; assay: Antifungal Activity MIC (in medicinal field); settings: CR1, read-out: Minimal Inhibitory Concentration (MIC)
[3] = system: Aspergillus fumigatus Saito; assay: Antifungal Activity MIC (in medicinal field); settings: read-out: Minimal Inhibitory Concentration (MIC)
Candida albicans GA-24 = assay: Antifungal Activity MIC (in medicinal field); settings: GA24, read-out: Minimal Inhibitory Concentration (MIC)
[4] = system: Trichophyton interdigitale; assay: Antifungal Activity MIC (in medicinal field); settings: read-out: Minimal Inhibitory Concentration (MIC)
[5] = system: Pseudomonas maltiophilia M-0627; assay: Minimal Inhibitory Concentration Method; settings: M0627, read-out: Minimal Inhibitory Conc.
[6] = system: Bacillus anthracis No. 119; assay: microbe, parasite or virus in culture; settings: NO.119, read-out: Minimal Inhibitory Conc.
Proteus vulgaris OX-19 = assay: Minimal Inhibitory Concentration Method
[7] = system: Pseudomonas cepacia M-0527; assay: Minimal Inhibitory Concentration Method; settings: Burkholderia cepacia, M0527, read-out: Minimal Inhibitory Conc.
[8] = system: Staphylococcus aureus 209P JC-1; assay: Minimal Inhibitory Concentration Method; settings: read-out: Minimal Inhibitory Conc.
[9] = system: Serratia marcescens MB-3848; assay: Minimal Inhibitory Concentration Method; settings: MB3848; Serratia marcescens MB-3848; read-out: Minimal Inhibitory Conc.
[10] = system: Escherichia coli NIHJ JC-2; assay: Minimal Inhibitory Concentration Method; settings: NIHJJC2, read-out: Minimal Inhibitory Conc.
[11] = system: Klebsiella pneumoniae PCI 602; assay: Minimal Inhibitory Concentration Method; settings: PCI602, read-out: Minimal Inhibitory Conc.
[12] = system: Shigella sonnei EW 33 type I; assay: Minimal Inhibitory Concentration Method; settings: EW33TYPEI, read-out: Minimal Inhibitory Conc.
Text: (Minimal Inhibitory Concentration Method)
Minimal Inhibitory Conc. (mcg/ml)

Salmonella typhi 0-901-W = assay: Minimal Inhibitory Concentration Method; settings: Salmonella enterica, read-out: Minimal Inhibitory Conc.
Bacillus subtilis = assay: Antibacterial activity (Paper-disc method); settings: read-out: Inhibition zone diameter; for zone of inhibition at 250 µg/mL: 250 γ/ml; for zone of inhibition at 500 µg/mL: 500 γ/ml
Sarcina lutea = assay: Antibacterial activity (Paper-disc method); settings: Micrococcus luteus, read-out: Inhibition zone diameter; for zone of inhibition at 250 µg/mL: 250 γ/ml; for zone of inhibition at 500 µg/mL: 500 γ/ml
[13] = system: Escherichia coli NIHJ JC-2; assay: Antibacterial activity (Paper-disc method); settings: read-out: Inhibition zone diameter; for zone of inhibition at 250 µg/mL: NIHJJC2, 250 γ/ml; for zone of inhibition at 500 µg/mL: NIHJJC2, 500 γ/ml
[14] = system: Staphylococcus aureus 209P; assay: Antibacterial activity (Paper-disc method); settings: read-out: Inhibition zone diameter; for zone of inhibition at 250 µg/mL: 250 γ/ml; for zone of inhibition at 500 µg/mL: 500 γ/ml
Shigella dysenteriae = assay: Minimal Inhibitory Concentration Method; settings: read-out: Minimal Inhibitory Conc.
[15] = system: Staphylococcus epidermidis ATCC 14990; assay: Minimal Inhibitory Concentration Method; settings: ATCC14990, read-out: Minimal Inhibitory Conc.
[16] = system: Bacillus subtilis ATCC 6633; assay: Minimal Inhibitory Concentration Method; settings: ATCC6633, read-out: Minimal Inhibitory Conc.
Escherichia coli No. 29 = assay: Minimal Inhibitory Concentration Method; settings: read-out: Minimal Inhibitory Conc.
[17] = Proteus vulgaris, OX19, read-out: Minimal Inhibitory Conc.
[18] = Staphylococcus aureus 209P JC-1

Compound	MIC [1]	MIC [2]	MIC [3]	MIC (Candida albicans GA-24)	MIC [4]	further results
CC(C)c1nnnn1CC(I)=C(I)I [Compound No. 49, 1-(2',3',3'-triiodoallyl)-5-isopropyltetrazole]	6.25 mg/L (≈ 11.8 µM)	6.25 mg/L (≈ 11.8 µM)	12.5 mg/L (≈ 23.6 µM)	12.5 mg/L (≈ 23.6 µM)	1.56 mg/L (≈ 2.94 µM)	–
CCCc1nnn(CC#CI)n1 [Compound No. 5, 2-(1'-iodopropyn-3'-yl)-5-n-propyltetrazole]	0.05 mg/L (≈ 0.181 µM)	0.78 mg/L (≈ 2.83 µM)	≤ 0.05 mg/L	0.78 mg/L (≈ 2.83 µM)	≤ 0.05 mg/L	MIC [5]: 25 mg/L (≈ 90.6 µM); MIC [6]: 12.5 mg/L (≈ 45.3 µM); MIC (Proteus vulgaris OX-19; [17]): 12.5 mg/L (≈ 45.3 µM); MIC [7]: 100 mg/L (≈ 362 µM); MIC ([8]; Staphylococcus aureus, 209P): 12.5 mg/L (≈ 45.3 µM); MIC [9]: 25 mg/L (≈ 90.6 µM); MIC [10]: 50 mg/L (≈ 181 µM); MIC [11]: 100 mg/L (≈ 362 µM); MIC [12]: 6.25 mg/L (≈ 22.6 µM); MIC (Salmonella typhi 0-901-W): 25 mg/L (≈ 90.6 µM)
CC(C)(C)c1nnn(CC(I)=C(I)I)n1 [Compound No. 44, 2-(2',3',3'-triiodoallyl)-5-tert.-butyltetrazole]	0.39 mg/L (≈ 0.717 µM)	50 mg/L (≈ 91.9 µM)	6.25 mg/L (≈ 11.5 µM)	50 mg/L (≈ 91.9 µM)	0.39 mg/L (≈ 0.717 µM)	–
CCCc1nnnn1CC(I)=C(I)I [Compound No. 47, 1-(2',3',3'-triiodoallyl)-5-n-propyltetrazole]	≤ 0.05 mg/L	6.25 mg/L (≈ 11.8 µM)	0.78 mg/L (≈ 1.47 µM)	6.25 mg/L (≈ 11.8 µM)	0.09 mg/L (≈ 0.17 µM)	–
Cc1ccc(-c2nnn(CC#CI)n2)cc1 [Compound No. 31, 2-(1'-Iodopropyn-3'-yl)-5-(p-methylphenyl)tetrazole]	0.19 mg/L (≈ 0.586 µM)	1.56 mg/L (≈ 4.81 µM)	1.56 mg/L (≈ 4.81 µM)	0.78 mg/L (≈ 2.41 µM)	0.39 mg/L (≈ 1.2 µM)	zone of inhibition at 250 µg/mL (Bacillus subtilis): 9.6 mm; zone of inhibition at 500 µg/mL (Bacillus subtilis): 9.6 mm; zone of inhibition at 250 µg/mL (Sarcina lutea): 12 mm; zone of inhibition at 500 µg/mL (Sarcina lutea): 12 mm; zone of inhibition at 250 µg/mL [13]: 11.4 mm; zone of inhibition at 500 µg/mL [13]: 11.6 mm; zone of inhibition at 250 µg/mL [14]: 11.3 mm; zone of inhibition at 500 µg/mL [14]: 11.4 mm
CCCc1nnn(CC(I)=C(I)I)n1 [Compound No. 46, 2-(2',3',3'-triiodoallyl)-5-n-propyltetrazole]	≤ 0.05 mg/L	0.78 mg/L (≈ 1.47 µM)	0.39 mg/L (≈ 0.736 µM)	1.56 mg/L (≈ 2.94 µM)	0.09 mg/L (≈ 0.17 µM)	–
CC(C)(C)c1nnnn1CC(I)=C(I)I [Compound No. 45, 1-(2',3',3'-triiodoallyl)-5-tert.-butyltetrazole]	–	–	–	–	–	MIC (Shigella dysenteriae): 3.13 mg/L (≈ 5.75 µM); MIC [15]: 0.2 mg/L (≈ 0.368 µM); MIC (Proteus vulgaris OX-19; [17]): 3.13 mg/L (≈ 5.75 µM); MIC [7]: 12.5 mg/L (≈ 23 µM); MIC [16]: 0.78 mg/L (≈ 1.43 µM); MIC [8, 18]: 0.78 mg/L (≈ 1.43 µM); MIC [9]: 12.5 mg/L (≈ 23 µM); MIC (Escherichia coli No. 29): 6.25 mg/L (≈ 11.5 µM); MIC (Salmonella typhi 0-901-W): 50 mg/L (≈ 91.9 µM)
IC(I)=C(I)Cn1nnnc1Cc1ccccc1 [Compound No. 59, 1-(2',3',3'-triiodoallyl)-5-benzyltetrazole]	–	–	–	–	–	MIC (Shigella dysenteriae): 0.39 mg/L (≈ 0.675 µM); MIC [15]: 0.2 mg/L (≈ 0.346 µM); MIC (Proteus vulgaris OX-19; OX19, Proteus vulgaris OX-19, read-out: Minimal Inhibitory Conc.): 1.56 mg/L (≈ 2.7 µM); MIC [7]: 3.13 mg/L (≈ 5.42 µM); MIC [16]: 1.56 mg/L (≈ 2.7 µM); MIC [8, 18]: 1.56 mg/L (≈ 2.7 µM); MIC [9]: 3.13 mg/L (≈ 5.42 µM); MIC (Escherichia coli No. 29): 0.78 mg/L (≈ 1.35 µM); MIC (Salmonella typhi 0-901-W): 12.5 mg/L (≈ 21.6 µM)
Clc1cc(Cl)cc(-c2nnn(CC#CI)n2)c1 [Compound No. 30, 2-(1'-Iodopropyn-3'-yl)-5-(3",5"-dichlorophenyl)tetrazole]	0.09 mg/L (≈ 0.237 µM)	0.78 mg/L (≈ 2.06 µM)	0.19 mg/L (≈ 0.501 µM)	0.78 mg/L (≈ 2.06 µM)	≤ 0.05 mg/L	–
CCCCCCCc1nnnn1CC(I)=C(I)I [Compound No. 41, 1-(2',3',3'-triiodoallyl)-5-n-heptyltetrazole]	0.78 mg/L (≈ 1.33 µM)	100 mg/L (≈ 171 µM)	3.13 mg/L (≈ 5.34 µM)	> 100 mg/L	≤ 0.05 mg/L	–
Clc1ccc(-c2nnn(CC#CI)n2)cc1 [Compound No. 25, 2-(1'-iodopropyn-3'-yl)-5-(p-chlorophenyl)tetrazole]	0.09 mg/L (≈ 0.261 µM)	–	0.39 mg/L (≈ 1.13 µM)	1.56 mg/L (≈ 4.53 µM)	0.39 mg/L (≈ 1.13 µM)	zone of inhibition at 250 µg/mL (Bacillus subtilis): 11.2 mm; zone of inhibition at 500 µg/mL (Bacillus subtilis): 11.1 mm; zone of inhibition at 250 µg/mL (Sarcina lutea): 16 mm; zone of inhibition at 500 µg/mL (Sarcina lutea): 15 mm; zone of inhibition at 250 µg/mL [13]: 13 mm; zone of inhibition at 500 µg/mL [13]: 13 mm; zone of inhibition at 250 µg/mL [14]: 13.2 mm; zone of inhibition at 500 µg/mL [14]: 13.7 mm
